Columns and labels:
TE10 cells [1] = assay: CCK8 cell proliferation, TE10; format: cell-based; details: compared with the blank control
From the text: (§1) At the same time, BI-D1870 was used as a positive control, and no drug was used as a blank control (Black).
(§2) The growth curve was drawn based on time and absorbance value.

ECA109 cells [2] = assay: CCK8 cell proliferation, ECA109; format: cell-based; details: compared with the blank control
From the text: as §1, §2

TE10 cells [3] = assay: Transwell migration assay, TE10; format: cell-based; details: compared with the blank control
Protocol: as §1
(§3) • (1) Digest cells. Wash once with PBS, resuspend in serum-free medium, and adjust the cell density to 5×10^5/ml. • (2) Add 500 μl of culture medium containing 10% fetal bovine serum to the lower chamber of the 24-well plate. Take 200 μl of cell suspension and add it to the chamber. Note that there are no bubbles between the chamber and the lower culture medium. • (3) Culture routinely for 16-24 h. • (4) Aspirate the culture medium in the chamber, fix the cells in the chamber with anhydrous methanol for 15 min, and rinse with PBS. • (5) Color: Add Gumsa staining solution to the 24-well plate, immerse the membrane in the staining solution for 20 min, and wash with PBS. • (6) Carefully wipe off the cells on the inner layer of the membrane with a cotton swab and air-dry the membrane. • (7) Take pictures under a microscope, count 5 high-power fields, and take the average value.

ECA109 cells [4] = assay: Transwell migration assay, ECA109; format: cell-based; details: compared with the blank control
Protocol: as §1, §3

[5] = system: RSK4 downstream substrates (P-RPS6, P-GSK3β); assay: Western blot of phosphorylation level of RSK4 downstream substrates; format: cell-based; details: TE10, ECA109 cells
Protocol: Western blot was used to detect the effect of phosphorylation level of RSK4 downstream substrates.
(1) Protein extraction, using Kangwei Century RIPA lysis buffer. Place the cell culture flask on ice for 20 minutes, shake it back and forth, and blow it with a pipette. Scrape the cells with a cell scraper, transfer them to an EP tube, and centrifuge them at 4° C. 10-20 μl can be aspirated for protein quantification. Add loading buffer, boil for 5 min, centrifuge at 12000 rpm for 5 min, and store in an ultra-low temperature refrigerator. Tissue protein extraction: Grind in liquid nitrogen, transfer to EP tube after melting, lyse on ice for 20 min, and centrifuge at 4° C.
(2) Protein quantification, use the Kangwei Century BCA quantification kit. Make two replicate wells for each sample, take the average value to make a standard curve and calculate the sample concentration.
(3) Protein electrophoresis, use the Kangwei Century SDS-PAGE gel preparation kit. The separation gel concentration is 8%, and the concentration gel concentration is 5%. The separation gel is 1.5 cm away from the upper edge of the front glass plate and filled with water to seal the gel. Use filter paper to absorb the water sealing liquid, fill the concentrated gel, and insert the comb. The voltage is 100V constant for 1 h30 min until the bromophenol blue runs out and stops electrophoresis.
(4) Transfer to membrane, soak the gel, filter paper, and sponge pad in 4° C. pre-cooled transfer buffer for 10 min, soak the PVDF membrane with methanol for 5 min, and transfer it to the transfer buffer for 10 min after it is fully wetted. Installation The order of transfer clips: black plate, sponge, 3 layers of filter paper, gel, membrane, 3 layers of filter paper, sponge, white plate. Expel bubbles at each step and place the membrane in one go. […]
(8) Luminescence: Use the Kangwei Century Chemiluminescence Detection Kit and scan the detection results with a chemiluminescence imager.
(9) Use Photoshop software to perform semi-quantitative grayscale analysis of the image and calculate the relative expression of the protein.

ESCC cells = assay: Nude mouse tumor formation experiment, esophageal squamous cell carcinoma; format: in vivo, BALB/c nude mice; details: intraperitoneally 15 mg/kg or 30 mg/kg per day; 20 days
Protocol: • (1) Nude mouse tumor formation experiment was performed on 4-6 week old female BALB/c nude mice, with 5 nude mice in each group. Each mouse was subcutaneously injected with about 1×10^6 ESCC cells dissolved in 200 μl sterile PBS. • (2) When the tumor volume reached 150 mm^3, the mice were divided into groups and treated differently. […] If the mice were infected or in poor condition, they were treated in time. During this period, the tumor volume was measured every 3-5 days, and the volume calculation formula was length×width 2×0.5. • (4) At the end of the experiment, the mice were killed, the subcutaneous tumors were removed, photographed, weighed, and counted.

KYSE450-IR = assay: CCK8 proliferation of icotinib-resistant strain KYSE450-IR; format: cell-based; details: for proliferation of KYSE450-IR: 2 μm, CCK8, DMSO blank control
Protocol: (§4) The CCK-8 cell proliferation kit of Shanghai Taoshu Biotechnology Co., Ltd. was used. • (1) Cell suspension was inoculated in a 96-well plate, 100 μL per well, 2,000 cells per well. • (2) Culture or give drugs according to experimental needs, and treat for an appropriate time. • (3) Add 10 μL of CCK-8 solution to each well and incubate at 37° C. • (4) The absorbance value was determined by selecting a wavelength of 450 nm on the microplate reader. The growth curve was drawn based on time and absorbance value.
(§5) The expression level of EGFR and the sensitivity to icotinib and afatinib in various ESCC cell lines (T1, T10, T11, KYSE150, KYSE450, ECA109, EC9706) were detected. The cell line KYSE450 with high EGFR expression and sensitivity to afatinib (low IC50) was selected. The icotinib and afatinib drug concentration increasing mode of action was used to induce KYSE450 cells to produce drug resistance, and a stable cell line resistant to icotinib and afatinib was obtained. The optimal drug concentration gradient for inducing afatinib obtained from the literature reports and the preliminary experiments before formal induction culture was: 100 nM, 300 nM, 500 nM, 800 nM, 1 μM and 5 μM. The initial induction dose of this experiment was 100 nM, and the highest induction dose was 5 μM. During the induction period, the culture medium containing icotinib and afatinib was replaced every 2 days. When the initial induction dose was induced for two weeks and the cell growth was stable, the drug induction dose began to be doubled, and each dose was maintained for 14 days before reaching the highest induction dose. The drug-resistant cells obtained after 10 months of induction culture were named KYSE450/IR KYSE450/AR cell lines.

KYSE450/AR = assay: CCK8 proliferation of afatinib-resistant strain KYSE450/AR; format: cell-based; details: FIG. 10
Protocol: as §4
as §5, with “When the initial induction dose was induced for two weeks and the cell growth was stable, the drug induction dose began to be doubled, and each dose was maintained for 14 days before reaching the highest induction dose. The drug-resistant cells obtained after 10 months of induction culture were named KYSE450/IR KYSE450/AR cell lines.” left out

B16F10 (melanoma) = B16F10 (melanoma) transplant tumor model; format: in vivo, C57BL/6 mice; details: Selonsertib 15 mg/kg per day i.p.; Anti-PD1 50 μg/kg once every two days; 10 days
Protocol: (§6) • (1) B16F10 (melanoma) and LLC (Lewis lung cancer) transplant tumor models were constructed in 6-8 week old C57BL/6 mice, with 6 mice in each group. Each mouse was subcutaneously injected with about 1×10^6 B16F10 cells and 5×10^6 LLC cells dissolved in 200 μl sterile PBS. • (2) When the tumor volume reached 150 mm^3, the mice were divided into groups and treated differently. […] The Anti-PD1 used in this experiment was specifically In VivoPlus anti-mouse PD-1 (CD279). • (3) The experimental observation time lasted for 10 days (melanoma) or 20 days (Lewis lung cancer). If the mice were infected or in poor condition, they were treated in time. During the period, the tumor volume was measured every 2 days, and the volume calculation formula was length×width 2×0.5. • (4) At the end of the experiment, the mice were killed, the subcutaneous tumors were removed, photographed, weighed, and counted.

LLC (Lewis lung cancer) = LLC (Lewis lung cancer) transplant tumor model; format: in vivo, C57BL/6 mice; details: Selonsertib 15 mg/kg per day i.p.; Anti-PD1 50 μg/kg once every two days; 20 days
Protocol: as §6

Row | Structure (SMILES) | proliferation of TE10 (TE10 cells [1]) | proliferation of ECA109 (ECA109 cells [2]) | migration of TE10 (TE10 cells [3]) | migration of ECA109 (ECA109 cells [4]) | expression of P-GSK3β (ser9) [5] | expression of P-RPS6 (S235/S236) [5] | phosphorylation of RSK4 downstream substrates ([5]; different concentrations) | inhibitory effect on tumor growth compared with the positive control (BI-D1870) (ESCC cells) | proliferation of KYSE450-IR (KYSE450-IR) | resistance of esophageal squamous cell carcinoma to icotinib (KYSE450-IR; FIG. 9) | KYSE450/AR proliferation (KYSE450/AR; 2 μm, CCK8) | resistance of esophageal squamous cell carcinoma to afatinib (KYSE450/AR) | proliferation of melanoma (tumor growth) (B16F10 (melanoma)) | proliferation of Lewis lung cancer (tumor growth) (LLC (Lewis lung cancer))
1 | CC(C)CCN1c2nc(Nc3cc(F)c(O)c(F)c3)ncc2N(C)C(=O)C1C (stereo not shown) [BI-D1870] | can inhibit | can inhibit | can inhibit | can inhibit | – | – | – | – | – | – | – | – | – | –
2 | Cc1cc(F)c(C(=O)Nc2cccc(-c3nncn3C(C)C)n2)cc1-n1cnc(C2CC2)c1 [Selonsertib, 5-(4-cyclopropyl-1H-imidazol-1-yl)-2-fluoro-N-(6-(4-isopropyl-4H-1,2,4-triazol-3-yl)pyridine-2-yl)-4-methylbenzamide] | can inhibit | can inhibit | can inhibit | can inhibit | downregulate | downregulate | could inhibit | stronger inhibitory effect on tumor growth at a lower dose | can inhibit | reverses the resistance | basically consistent with those of KYSE450-IR | reverses the resistance | can inhibit | can inhibit
3 | C#Cc1cccc(Nc2ncnc3cc4c(cc23)OCCOCCOCCO4)c1 [icotinib] | – | – | – | – | – | – | – | – | extremely low | – | – | – | – | –

Reference: patent US20250152570A1 (AIR FORCE MEDICAL UNIVERSITY, priority 2022, published 2025)
